In PMC12649290 (Journal of Clinical Pharmacology, 2025):

How the values were obtained:
[1] = Population pharmacokinetic (popPK) model developed on OSIBOOST trial plasma concentrations (NONMEM); type: in vivo, human; details: for CL/F, Population Estimate (RSE%) / V/F, Population Estimate (RSE%): allometrically scaled on bodyweight of 70 kg; for CL/F, Population Estimate (RSE%): exponent 0.75; for V/F, Population Estimate (RSE%): exponent 1; for CL/F, Bootstrap Median / V/F, Bootstrap Median: non-parametric bootstrap n = 1000
Description: The data used in this study were obtained from the OSIBOOST clinical trial (NCT03858491).[15] The trial was approved by an independent medical ethics committee (METC19‐013) and was conducted in accordance with the 1964 Helsinki declaration (and its amendments). All patients provided written informed consent. Patients were included from one academic medical center and a specialized tertiary referral center in the Netherlands (the Maastricht University Medical Centre and the Antoni van Leeuwenhoek hospital). […] After 21 days of concomitant treatment with cobicistat (to reach steady state), PK samples (pre‐dose, 0.5‐1.5 h, 2.5‐3.5 h, 7‐8 h) of the concomitant therapy were collected.
PK data were analyzed with NONMEM version 7.4.4, Perl‐speaks‐NONMEM (PsN) version 5.4.0, R version 4.4.2, and Rstudio version 2024.09.0. The packages xpose, tidyvpc, mrgsolve, and ggplot2 in R were used for plotting and simulations.
A base popPK model was developed with the data from osimertinib monotherapy, using the first‐order conditional estimation method with interaction (FOCE‐I). […] Parameter changes were tested with stepwise inclusion and backward elimination. A decrease of more than −3.84 ΔOFV (P < .05) was considered a significant improvement when a single parameter was added to nested models. For backward elimination, a stricter criterion of 6.63 ΔOFV (P < .01) was used when removing a parameter from the popPK model.[25] One‐compartment and two‐compartment models were tested to best describe the data. Exponential between subject variability (BSV) on the popPK parameters was explored in a step‐wise approach. Residual error was tested as an additional, proportional, and a combined error model.
Developed popPK models were evaluated based on successful minimization, change in objective function value (ΔOFV), numerical diagnostics, standard goodness of fit (GOF) plots, and conditional weighted residuals (CWRES) plots. The performance of the developed popPK models was assessed with prediction‐corrected visual predictive check (pcVPC) and normalized prediction distribution error (NPDE) plots.[27] For the final popPK model, the median parameter estimate and 95% confidence interval (CI) were obtained non‐parametric bootstrap procedure (n = 1000) and can be considered as an internal validation.[28], [29] Relative standard errors (RSE%) of estimated parameters were acceptable when <30%.[30] A condition number was considered acceptable if […].[30] Both η‐shrinkage and ε‐shrinkage were considered appropriate if <30%.[31]

[2] = cited from earlier work
[3] = cited from earlier work; remark: listed apart in the source

| CL/F, Population Estimate (RSE%) [1] | V/F, Population Estimate (RSE%) [1] | CL/F, Bootstrap Median [1] | V/F, Bootstrap Median [1] | Coefficient of variation (CV%) of the BSV on CL/F ([1]; in vivo) | Compound | Increase of osimertinib exposure (mean AUC0‐24h) by cobicistat ([2]; 11 patients with Cmin,SS ≤ 195 µg/L, noncompartmental analysis) | Adverse events of cobicistat boosted osimertinib ([2]; 11 patients with low osimertinib exposure) | Increase in osimertinib exposure when combined with itraconazole [3] |
| --- | --- | --- | --- | --- | --- | --- | --- | --- |
| 47.3 (7.8%) L/h | 184 (48.5%) L | 46.3 L/h | 181 L |  | C=CC(=O)Nc1cc(Nc2nccc(-c3c[nH]c4ccccc34)n2)c(OC)cc1N(C)CCN(C)C [AZ5104] |  |  |  |
| 19.0 (8.5%) L/h | 990 (29%) L | 19.0 L/h | 966 L | 21.5% | C=CC(=O)Nc1cc(Nc2nccc(-c3cn(C)c4ccccc34)n2)c(OC)cc1N(C)CCN(C)C [osimertinib] |  |  |  |
|  |  |  |  |  | CC(C)c1nc(CN(C)C(=O)N[C@@H](CCN2CCOCC2)C(=O)N[C@H](CC[C@H](Cc2ccccc2)NC(=O)OCc2cncs2)Cc2ccccc2)cs1 [cobicistat] | 50% | without any grade ≥3 adverse events (AEs) or new safety signals |  |
|  |  |  |  |  | CCC(C)n1ncn(-c2ccc(N3CCN(c4ccc(OCC5COC(Cn6cncn6)(c6ccc(Cl)cc6Cl)O5)cc4)CC3)cc2)c1=O (stereo not drawn) [itraconazole] |  |  | 24% |
